Test results taken from PubChem BioAssay AID330 (DTP/NCI, 2004).
“And” between values parts separate entries of the source, which are not always exact repeats. Equal values may be shown once. Toxic doses and inconclusive results are not listed. How the source made its calls: active means survival T/C of 150% or more; inactive means T/C below 125% in these data.

Tested on: P388 leukemia ip, CD2F1 mice, survival T/C
Experiment: NCI In Vivo Anticancer Drug Screen. Data for tumor model P388 Leukemia (intraperitoneal) in CD2F1 (CDF1) mice
Conditions: endpoint: median survival time, higher = longer survival
In short: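 Mice carrying the transplanted tumor received test compound or vehicle. Survival was recorded in each group, and the value is the treated-group measurement divided by that of the vehicle-treated control group.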

[1] = dose: 50.0 mg/kg/injection, schedule: Q01DX005 (ip), vehicle: saline
[2] = dose: 100.0 mg/kg/injection, schedule: Q01DX005 (ip), vehicle: saline
[3] = dose: 50.0 mg/kg/injection, schedule: Q01DX005 (ip), vehicle: Klucel (hydroxypropylcellulose) (HPC)
[4] = dose: 100.0 mg/kg/injection, schedule: Q01DX005 (ip), vehicle: Klucel (hydroxypropylcellulose) (HPC)
[5] = dose: 200.0 mg/kg/injection, schedule: Q01DX005 (ip), vehicle: Klucel (hydroxypropylcellulose) (HPC)
[6] = dose: 60.0 mg/kg/injection, schedule: Q01DX005 (ip), vehicle: Klucel (hydroxypropylcellulose) (HPC)
[7] = dose: 120.0 mg/kg/injection, schedule: Q01DX005 (ip), vehicle: Klucel (hydroxypropylcellulose) (HPC)
[8] = dose: 240.0 mg/kg/injection, schedule: Q01DX005 (ip), vehicle: Klucel (hydroxypropylcellulose) (HPC)
[9] = dose: 60.0 mg/kg/injection, schedule: Q01DX005 (ip), vehicle: saline with Tween-80
[10] = dose: 50.0 mg/kg/injection, schedule: Q01DX009 (ip), vehicle: saline
[11] = dose: 25.0 mg/kg/injection, schedule: Q01DX009 (ip), vehicle: saline with Tween-80
[12] = dose: 50.0 mg/kg/injection, schedule: Q01DX009 (ip), vehicle: saline with Tween-80
[13] = dose: 100.0 mg/kg/injection, schedule: Q01DX009 (ip), vehicle: saline with Tween-80
[14] = dose: 200.0 mg/kg/injection, schedule: Q01DX009 (ip), vehicle: saline with Tween-80
[15] = dose: 50.0 mg/kg/injection, schedule: Q01DX009 (ip), vehicle: Klucel (hydroxypropylcellulose) (HPC)
[16] = dose: 100.0 mg/kg/injection, schedule: Q01DX009 (ip), vehicle: Klucel (hydroxypropylcellulose) (HPC)
[17] = dose: 120.0 mg/kg/injection, schedule: Q01DX005 (ip), vehicle: saline with Tween-80

Measured: T/C

Cc1[nH]c(=O)[nH]c(=O)c1/C=C/C(=O)NC(CO)CS(C)=O (configuration not stated)
inactive: dose: 0.07 mg/kg/injection, schedule: Q01DX009 (ip), vehicle: water 108 % of control | dose: 0.15 mg/kg/injection, schedule: Q01DX009 (ip), vehicle: water 106 % of control and 100 % of control | dose: 0.3 mg/kg/injection, schedule: Q01DX009 (ip), vehicle: water 92 % of control and 110 % of control | dose: 0.6 mg/kg/injection, schedule: Q01DX009 (ip), vehicle: water 98 % of control and 110 % of control | dose: 1.2 mg/kg/injection, schedule: Q01DX009 (ip), vehicle: water 112 % of control | dose: 2.0 mg/kg/injection, schedule: Q01DX009 (ip), vehicle: water 118 % of control | dose: 4.0 mg/kg/injection, schedule: Q01DX009 (ip), vehicle: water 120 % of control | dose: 16.0 mg/kg/injection, schedule: Q01DX009 (ip), vehicle: water 111 % of control | dose: 40.0 mg/kg/injection, schedule: Q01DX009 (ip), vehicle: water 102 % of control | dose: 64.0 mg/kg/injection, schedule: Q01DX009 (ip), vehicle: water 116 % of control and 123 % of control | dose: 128.0 mg/kg/injection, schedule: Q01DX009 (ip), vehicle: water 124 % of control

CN(C)C(CCC(=O)O)C(=O)O (configuration not stated)
inactive: [1] 102 % of control | [2] 97 % of control | dose: 200.0 mg/kg/injection, schedule: Q01DX005 (ip), vehicle: saline 98 % of control

O=CC(C(=O)c1ccccc1[N+](=O)[O-])c1ccccc1 (configuration not stated)
inactive: [3] 89 % of control | [4] 104 % of control | [5] 98 % of control

COC(=O)c1nc(N)nc(C(=O)OC)c1C(=O)c1ccncc1
inactive: [6] 92 % of control | [7] 96 % of control

Clc1ncnc2c1ncn2C1C=CC=CC=C1
inactive: [3] 90 % of control | [4] 92 % of control | [5] 91 % of control

C=CCNC(=S)Nc1ncn[nH]1
inactive: [3] 95 % of control | [4] 104 % of control

COc1ccc2nc3cc(Cl)ccc3c(NC(C)CCCN(C)C)c2n1 (configuration not stated)
inactive: [1] 102 % of control | [2] 110 % of control

Brc1c(C(Br)Br)ccc2ccccc12
inactive: [3] 103 % of control | [4] 105 % of control | [5] 109 % of control

c1ccc(C23CCCCC2O3)cc1 (configuration not stated)
inactive: [6] 102 % of control | [7] 107 % of control | [8] 111 % of control

O=C1/C(=C\c2ccccc2)C(NC2CCCCC2)c2ccccc21 (configuration not stated)
inactive: dose: 3.12 mg/kg/injection, schedule: Q01DX005 (ip), vehicle: Klucel (hydroxypropylcellulose) (HPC) 109 % of control | dose: 6.25 mg/kg/injection, schedule: Q01DX005 (ip), vehicle: Klucel (hydroxypropylcellulose) (HPC) 100 % of control | dose: 12.5 mg/kg/injection, schedule: Q01DX005 (ip), vehicle: Klucel (hydroxypropylcellulose) (HPC) 107 % of control | dose: 25.0 mg/kg/injection, schedule: Q01DX005 (ip), vehicle: Klucel (hydroxypropylcellulose) (HPC) 107 % of control

O=c1[nH]c2c(=O)[nH][nH]c(=O)c2[nH]c1=O
inactive: dose: 15.0 mg/kg/injection, schedule: Q01DX005 (ip), vehicle: saline with Tween-80 103 % of control | dose: 30.0 mg/kg/injection, schedule: Q01DX005 (ip), vehicle: saline with Tween-80 100 % of control | [9] 99 % of control and 105 % of control

CC1=Nc2ccccc2C(=O)NN1
inactive: dose: 100.0 mg/kg/injection, schedule: Q04DX002 (ip), vehicle: saline with Tween-80 101 % of control | dose: 200.0 mg/kg/injection, schedule: Q04DX002 (ip), vehicle: saline with Tween-80 101 % of control | dose: 400.0 mg/kg/injection, schedule: Q04DX002 (ip), vehicle: saline with Tween-80 102 % of control

C[S+](C)c1ccc(Cl)cc1
inactive: dose: 12.5 mg/kg/injection, schedule: Q01DX009 (ip), vehicle: saline 95 % of control | dose: 25.0 mg/kg/injection, schedule: Q01DX009 (ip), vehicle: saline 91 % of control | [10] 108 % of control

Cc1ccc(CO)c2ccccc12
inactive: [11] 96 % of control | [12] 107 % of control | [13] 96 % of control | [14] 96 % of control

COC1=CC(=O)C(Cc2ccc3c(c2)OCO3)=CC1=O
inactive: dose: 2.5 mg/kg/injection, schedule: Q01DX009 (ip), vehicle: saline with Tween-80 101 % of control | dose: 5.0 mg/kg/injection, schedule: Q01DX009 (ip), vehicle: saline with Tween-80 99 % of control | dose: 10.0 mg/kg/injection, schedule: Q01DX009 (ip), vehicle: saline with Tween-80 101 % of control

O=C1N(CCN2CCC3(CC2)OCCO3)CCN1c1cc(Cl)cc(Cl)c1
inactive: dose: 12.5 mg/kg/injection, schedule: Q01DX009 (ip), vehicle: water 104 % of control and 105 % of control and 113 % of control | dose: 25.0 mg/kg/injection, schedule: Q01DX009 (ip), vehicle: water 105 % of control and 112 % of control and 123 % of control | dose: 100.0 mg/kg/injection, schedule: Q01DX009 (ip), vehicle: water 105 % of control and 110 % of control | dose: 200.0 mg/kg/injection, schedule: Q01DX009 (ip), vehicle: water 108 % of control

C/C(=N\O)c1ccc2ccccc2c1
inactive: [10] 101 % of control | dose: 100.0 mg/kg/injection, schedule: Q01DX009 (ip), vehicle: saline 113 % of control | dose: 200.0 mg/kg/injection, schedule: Q01DX009 (ip), vehicle: saline 102 % of control

COC(=O)CC(C(=O)CSC(S(=O)(=O)c1ccccc1)S(=O)(=O)c1ccccc1)C(=O)OC (configuration not stated)
inactive: [3] 99 % of control | [4] 101 % of control | [5] 100 % of control

CCOC(=O)C(=O)Nc1c(C(=O)OC)cc(C)c(C)c1C#N
inactive: [15] 93 % of control | [16] 94 % of control | dose: 200.0 mg/kg/injection, schedule: Q01DX009 (ip), vehicle: Klucel (hydroxypropylcellulose) (HPC) 93 % of control

Cc1ccc(/C=C/C(=N/Nc2ccccc2)C(C)CN(C)C)cc1 (configuration not stated)
inactive: [9] 100 % of control | [17] 89 % of control

COS(=O)(=O)OC1(SC)C=C(c2ccccc2)SS1 (configuration not stated)
inactive: dose: 12.5 mg/kg/injection, schedule: Q01DX001 (ip), vehicle: saline 96 % of control | dose: 25.0 mg/kg/injection, schedule: Q01DX001 (ip), vehicle: saline 109 % of control and 121 % of control | dose: 50.0 mg/kg/injection, schedule: Q01DX001 (ip), vehicle: saline 118 % of control and 122 % of control

CCOC(=O)c1c(Cl)c(Cl)c(C(=O)OCC)c(Cl)c1Cl
inactive: dose: 100.0 mg/kg/injection, schedule: Q04DX003 (ip), vehicle: saline sonified 100 % of control | dose: 200.0 mg/kg/injection, schedule: Q04DX003 (ip), vehicle: saline sonified 100 % of control | dose: 400.0 mg/kg/injection, schedule: Q04DX003 (ip), vehicle: saline sonified 100 % of control

COc1ccccc1/C=C(\C(=O)O)c1ccccc1
inactive: [3] 96 % of control | [4] 91 % of control

c1ccc2c[n+](CC[n+]3ccc4ccccc4c3)ccc2c1
inactive: [11] 100 % of control | [12] 118 % of control

COc1ccccc1C1OC(N)=C(O)C1=O (configuration not stated)
inactive: [6] 97 % of control | [7] 103 % of control | [8] 104 % of control

CSCCC(NCc1c(O)ccc2c(C)cc(=O)oc12)C(=O)O (configuration not stated)
inactive: [6] 93 % of control | [7] 98 % of control | [8] 99 % of control

COC(=O)C1=C/C=C\CN(CCC2OCC(CBr)O2)/C=C\1C(=O)OC (configuration not stated)
inactive: dose: 100.0 mg/kg/injection, schedule: Q01DX001 (ip), vehicle: alcohol 95 % of control | dose: 200.0 mg/kg/injection, schedule: Q01DX001 (ip), vehicle: alcohol 100 % of control | dose: 400.0 mg/kg/injection, schedule: Q01DX001 (ip), vehicle: alcohol 100 % of control

O=C(N/N=C(/C(=N/NC(=O)c1ccccc1)c1ccccc1)c1ccccc1)c1ccccc1
inactive: [13] 100 % of control | [14] 95 % of control | dose: 400.0 mg/kg/injection, schedule: Q01DX009 (ip), vehicle: saline with Tween-80 90 % of control

CN(C)C1CS(=O)(=O)OC2=C1CCOc1ccccc12 (configuration not stated)
inactive: [6] 97 % of control | [7] 91 % of control | [8] 89 % of control

Cc1cc(O[Si](C)(C)C)nc(O[Si](C)(C)C)n1
inactive: [9] 106 % of control | [17] 110 % of control | dose: 240.0 mg/kg/injection, schedule: Q01DX005 (ip), vehicle: saline with Tween-80 105 % of control

Cc1ccc2nc(NC(=S)NCCCCCCNC(=S)Nc3ccc4cc(C)ccc4n3)ccc2c1
inactive: [15] 93 % of control | [16] 93 % of control
